Source: US20180036332A1 (Chongqing Institute of Bench-to Bed Bioengineering …, priority 2015, published 2018)

How the values were obtained:
[1] = test system: primary endothelial cells HUVEC; assay: MTT cell viability assay of primary endothelial cells HUVEC in low glucose and hypoxia environment; assay type: cell-based; conditions: 48 hours
[2] = parameters: species or system rats; conditions: rat, in vivo

For “Nicotinamide adenine dinucleotide phosphate [NADPH]”, the “survival rate of HUVEC cells” value ([1]; 5 μM NADPH, p<0.05) was “around 65.3%”, the “survival rate of HUVEC cells” value ([1]; 10 μM NADPH, p<0.01) was “around 73.6%” and the “survival rate of HUVEC cells” value ([1]; 20 μM NADPH, p<0.01) was “around 70.9%”. For the same substance, the “range of myocardial infarction (weight % of ischemic infarct zone in total ischemic myocardial zone)” value [2] was “significantly reduces the range of myocardial infarction”.
